Test results reported in patent US9655965B2, “Radiosensitizer compounds for use in combination with radiation” (priority 2013, dated 2017).
Entries after “also recorded” stand apart in the source; their conditions may differ.

Tests used:
[1] = system: human cervical cancer (HeLa) cells; test: In vitro radiosensitizing effect, MTT assay 6 days after X-ray, HeLa; assay type: cell-based; settings: 12-hr treatment, MTT at 6 days
Text: (§1) Dibromo-diamino-benzene (Dibromo-phenylenediamine, Compound B) was obtained from TCI—America. Diiodo-diaminobenzene (Compound C) were synthesized, purified and crystallized in our laboratory, and the structures and purity were examined by NMR and mass spectrometry. MEM and fetal bovine serum (FBS), penicillin G and streptomycin were obtained from Hyclone Laboratories (UT, USA). Stock solution of cisplatin was freshly prepared in ultrapure water or saline, and stock solutions of Compounds A, B, C, D were prepared in pure ethanol, where the final concentration of ethanol was ≦1% when treated to cells.
(§2) A human skin diploid fibroblast (GM05757 cell line) was obtained from the Coriell Cell Repository directly, while the human cervical cancer cell line (HeLa, ATCC#: CCL-2; or ME-180), human ovarian cancer cell line (NIH:OVCAR-3, ATCC#: HTB-161) and human lung cancer cell line (A549, ATCC#: CCL-185™), together with RPMI 1640, F-12K, McCoy's 5 A and L-15 culture media, were obtained from the American Type Culture Collection (ATCC) directly. Fetal bovine serum (FBS) was obtained from Hyclone Laboratories (UT, USA). The GM05757 normal cells and HeLa cells were cultivated with MEM (Hyclone) supplemented with 10% FBS, 100 units/mL penicillin G and 100 μg/mL streptomycin (Hyclone). The complete growth media for ME-180, NIH:OVCAR-3, A549 and MDA-MB-231 cells were the ATCC-formulated McCoy's 5 A Medium supplemented with 10% FBS, RPMI 1640 medium with 20%, F-12K medium with 10% FBS, and L-15 Medium (Leibovitz) with 10% FBS, respectively. The cells were maintained at 37° C. in a humidified atmosphere containing 5% CO2.
The radiosensitizing effects of RSCs on cell viability were determined by the 3-[4,5-dimethylthiazol-2-yl]-2,5-diphenyl tetrazoliumbromide (MTT) assay. Cells were cultured in 96-well plates (5×10^3 cells/well) for 24 h. […] The surviving fraction was determined by measuring the absorbance at 540 nm (570 nm for SDS solubilization) using a Multiskan Spectrum UV/Vis microplate reader (Thermo Scientific), which is directly proportional to the number of viable cells.

[2] = system: cisplatin-resistant human ovarian cancer (HTB-161) cells; test: In vitro radiosensitizing effect, MTT assay 6 days after X-ray, HTB-161; assay type: cell-based; settings: MTT at 6 days
Text: as §1, with “cells. […]” for “cells.”
The radiosensitizing effects of RSCs on cell viability were determined by the 3-[4,5-dimethylthiazol-2-yl]-2,5-diphenyl tetrazoliumbromide (MTT) assay. […] The surviving fraction was determined by measuring the absorbance at 540 nm (570 nm for SDS solubilization) using a Multiskan Spectrum UV/Vis microplate reader (Thermo Scientific), which is directly proportional to the number of viable cells.

[3] = system: human cervical cancer (ME-180) cells; test: In vitro radiosensitizing effect, MTT assay 6 days after X-ray, ME-180; assay type: cell-based
Text: as §1, §2
(§3) The radiosensitizing effects of RSCs on cell viability were determined by the 3-[4,5-dimethylthiazol-2-yl]-2,5-diphenyl tetrazoliumbromide (MTT) assay. Cells were cultured in 96-well plates (5×10^3 cells/well) for 24 h. The culture medium was replaced by fresh culture medium and incubated for 12 h with varying drug concentrations. The cells were then irradiated by 225 kV X-ray (PRECISION X-RAD IR 225) at a dose rate of 2 Gy/min with various X-ray doses. After irradiation, the cells were incubated for 6 days. The MTT assay of cell viability was then conducted. Briefly, 100 μl new medium without phenol red containing 1.2 mM MTT (sigma) (i.e., adding 10 μl 12 mM MTT stock solution in PBS) were added to each well and incubated for 4 h. The medium was then removed, and the formazan crystals solubilized by 100 μL/well DMSO (or alternatively by 100 μl/well SDS and incubated for another 4 h). The surviving fraction was determined by measuring the absorbance at 540 nm (570 nm for SDS solubilization) using a Multiskan Spectrum UV/Vis microplate reader (Thermo Scientific), which is directly proportional to the number of viable cells.

[4] = system: various human cancer cells; test: In vitro radiosensitizing effects in various human cancer cells (FIG. 14-21); assay type: cell-based; settings: 12 hr treatment, then various doses of 225 keV X-ray
Text: as §1, §2, §3

[5] = system: human normal cells (GM05757); test: In vitro toxicity in human normal cells, 72-hr treatment, MTT assay; assay type: cell-based; settings: GM05757, 72-hr treatment, without ionizing radiation; for toxicity toward human normal cells: 0-50 μM cisplatin, 0-200 μM compounds
Text: as §1, with “TCI-America.” for “TCI—America.”
(§4) A human skin diploid fibroblast (GM05757 cell line) was obtained from the Coriell Cell Repository directly. Fetal bovine serum (FBS) was obtained from Hyclone Laboratories (UT, USA). The GM05757 normal cells were cultivated with MEM (Hyclone) supplemented with 10% FBS, 100 units/mL penicillin G and 100 μg/mL streptomycin (Hyclone). The cells were maintained at 37° C. in a humidified atmosphere containing 5% CO2.
as §3, with “for 72” for “for 12”, “concentrations.” for “concentrations. The cells were then irradiated by 225 kV X-ray (PRECISION X-RAD IR 225) at a dose rate of 2 Gy/min with various X-ray doses. After irradiation, the cells were incubated for 6 days.”

[6] = system: human normal cells (GM05757); test: In vitro radiation-induced toxicity in human normal cells, MTT assay 12 days after X-ray; assay type: cell-based; settings: GM05757, 12-hr treatment, then 0-10 Gy 225 keV X-ray, MTT at 12 days
Text: as §1, with “TCI-America.” for “TCI—America.”
as §4
as §3, with “for 12” for “for 6”, “h. […]” for “h. The medium was then removed, and the formazan crystals solubilized by 100 μL/well DMSO (or alternatively by 100 μl/well SDS and incubated for another 4 h).”

mice = settings: literature; cited from earlier work
[7] = [Lu, 2010]; cited from earlier work

Row | Molecule | enhancement of radiosensitivity of cancer cells to X-ray ([1]; 0-10 Gy 225 keV X-ray) | killing of cancer cells in combination with radiation [4] | toxicity toward human normal cells [5] | radiation toxicity in human normal cells [6] | also measured
1 | bromo-(1,2-)diamino-benzene [Compound D] | significant enhancement in the radiosensitivity | enhanced the killing of cancer cells in a radiation dose dependent manner and in synergy with radiation; also recorded: enhances the effectiveness of ionizing radiation to kill tumor cells |  |  | enhancement of radiosensitivity of cisplatin-resistant cancer cells to X-ray ([2]; HTB-161, 0-7.5 Gy 225 keV X-ray): significant enhancement in the radiosensitivity; enhancement of radiosensitivity of cancer cells to X-ray ([3]; ME-180, 12-hr treatment, 0-10 Gy 225 keV X-ray, MTT at 6 days): significant enhancement in the radiosensitivity; killing of cancer cells ([3]; ME-180, 50 Gy x-ray with about 100 μM compound, about 20% survived without any RSC): early all cancer cells were killed
2 | Nc1cc(Cl)c(Cl)cc1N [Compound A, 4,5-dichloro-1,2-phenylenediamine] | significant enhancement in the radiosensitivity | enhanced the killing of cancer cells in a radiation dose dependent manner and in synergy with radiation; also recorded: enhances the effectiveness of ionizing radiation to kill tumor cells | essentially no toxicity; also recorded: little toxicity up to 200 μM | no radiation toxicity | enhancement of radiosensitivity of cisplatin-resistant cancer cells to X-ray ([2]; HTB-161, 12-hr treatment, 0-10 Gy 225 keV X-ray): significant enhancement in the radiosensitivity
3 | Nc1cc(I)c(I)cc1N [Compound C, 4,5-diiodo-1,2-phenylenediamine] |  | enhanced the killing of cancer cells in a radiation dose dependent manner and in synergy with radiation; also recorded: enhances the effectiveness of ionizing radiation to kill tumor cells | essentially no toxicity; also recorded: little toxicity up to 200 μM |  | enhancement of radiosensitivity of cancer cells to X-ray ([1]; 0 and 20 Gy 225 keV X-ray): significant enhancement in the radiosensitivity
4 | cis-Pt(NH3)2Cl2 [cisplatin, reference compound] |  |  | highly toxic; also recorded: severe toxicity even at low concentrations of ≦30 μM | essentially no radiation toxicity | IC50 ([5]; read-out: IC50 (cell survival rate 50% with respect to untreated cells)): ~10 µM; LD50 (mice): 13.5 mg/kg
5 | O=c1[nH]c(=O)n([C@H]2C[C@H](O)[C@@H](CO)O2)cc1I [IdU, iododeoxyuridine] |  |  |  |  | DET reaction with epre− among halopyrimidines [7]: strongest DET reaction among the halopyrimidines
